{"source": "patent US11779659B2", "about": "“RNA constructs and uses thereof” (priority 2020, dated 2023)", "key": {"[1]": {"assay": "LNP formulation screening: physical characteristics", "assay_type": "physicochemical", "conditions": "LNP with surrogate RNA coding for luciferase", "method": "(§1) An exemplary LNP delivery system was developed to effectively and safely deliver therapeutic nucleic acids into the cytosol of various cell types after local administration in vivo. The early formulation work was performed with several promising LNP formulations and surrogate RNA coding for luciferase. The aim of the experiments was to correlate the effect of different ionizable cationic lipids on the efficacy of RNA delivery by LNPs in vivo. Formulations were compared in terms of RNA encapsulation efficiency, apparent pKa, LNP size and polydispersity."}, "liver": {"tested_on": "liver", "assay": "in vivo screening of LNP with luciferase (Luc) RNA, intravenous administration", "method": "as §1\nBased on this the ALC-0315/DSPC/CHOL/ALC-0159 prototype was submitted for in vivo screening. The results presented in FIG. 16 summarize the in vivo testing of two independent pilot batches using luciferase (Luc) RNA.\nThe formulation screening procedure described above involves intravenous administration resulting in delivery primarily to the liver. The mechanism of LNP uptake into hepatocytes is driven by binding of endogenous apolipoproteins to the LNP followed by receptor-mediated endocytosis e.g. through low density lipoprotein receptors. […] Luc expression was monitored at 4, 24, 72 and 96 hours post administration (FIG. 17)."}}}
{"smiles": "CCCCCCCCC(CCCCCC)C(=O)OCCCCCCN(CCCCO)CCCCCCOC(=O)C(CCCCCC)CCCCCCCC", "note": "(centres unmarked) [ALC-0315, ((4-hydroxybutyl)azanediyl)bis(hexane-6,1-diyl)bis(2-hexyldecanoate)]", "values": [{"measurement": "physical characteristics regarding particle size, homogeneity, and RNA encapsulation efficiency", "setting": "[1]", "value": "suitable"}, {"measurement": "potency as cationic lipid", "setting": "liver", "value": "highly potent"}]}
